The values that follow come from US10251869B2, “Compositions and methods of inhibiting metallo-β-lactamases” (priority 2014, dated 2019).

The term Km denotes the concentration of substrate that gives half-maximal velocity.

The test system of one experiment is E. coli pBC SK(−). Nature of the experiment: MIC by agar dilution, E. coli DH10B host with empty phagemid. It counts as cell-based. Particulars: Escherichia coli. Here is the method:
(§1) E. coli DH10B (Invitrogen, Carlsbad, Calif.) was used as a host strain for pBCSK (−) blaVIM-2, and to obtain a mutant library at position 228 by site-saturation mutagenesis, using the QuickChange XL Site-directed Mutagenesis Kit (Stratagene). Briefly, primers that capture all 19 variants at MBL position 228 were designed and PCR mutagenic reactions were conducted using pBCSK (−) blaVIM-2 as a template, and transformed into E. coli DH10B. Single colonies were selected for plasmid purification, and successful mutagenesis was verified by complete DNA sequencing.
(§2) The effect of Zn^2+ availability was also tested by agar dilution using MH supplemented with 250 μM ZnSO4 or 5 μM EDTA. Reported values are the mode of at least 3 biological replicates.

The test system of experiment [1] is E. coli DH10B pBCSK(−) producing R228K variant. Put plainly: MIC by agar dilution, E. coli DH10B producing VIM-2 R228K. It is filed as cell-based. Particulars: Escherichia coli. Here is the method: as §1, §2
(Agar dilution tests growth on a series of plates holding different concentrations.)

Experiment [2] concerns E. coli DH10B pBCSK(−) producing VIM-2 (228R). Nature of the experiment: MIC by agar dilution, E. coli DH10B producing VIM-2. It counts as cell-based. The conditions noted are these: Escherichia coli, read-out: MIC.
Description: A forward primer containing the SacI restriction site and a reverse primer with the BamHI restriction site were used to amplify blaVIM-2 including the pET24a(+) ribosomal binding site, using plasmid pET-24a(+)-blaVIM-2 as template. The product was then subcloned into phagemid pBCSK (−) (Agilent (Santa Clara, Calif.)) using the above restriction sites, and thus placing the blaVIM-2 open reading frame under control of the lac promoter, to yield phagemid pBCSK (−) blaVIM-2.
as §1, §2

Experiment [3] concerns E. coli DH10B pBCSK(−) producing R228P variant. Nature of the experiment: MIC by agar dilution, E. coli DH10B producing VIM-2 R228P. It counts as cell-based. The conditions noted are these: Escherichia coli. The procedure:
as §1, §2

In experiment [4] the test system is VIM-2 producing P. aeruginosa. Nature of the experiment: Imipenem MIC of clinical isolate, VIM-2 P. aeruginosa. It is filed as cell-based.
Experiment [5] relates to E. coli DH10B pBCSK(−) producing VIM-24 (R228L). Nature of the experiment: MIC by agar dilution, E. coli DH10B producing VIM-24. It counts as cell-based. Particulars: Escherichia coli, read-out: MIC. The procedure:
as §1, §2

Experiment [6] deals with VIM-24 producing K. pneumoniae. Put plainly: Imipenem MIC of clinical isolate, VIM-24 K. pneumoniae. It is filed as cell-based. Particulars: Klebsiella pneumoniae.
In experiment [7] the test system is E. coli DH10B pBCSK(−) producing R228Y variant. Nature of the experiment: MIC by agar dilution, E. coli DH10B producing VIM-2 R228Y. It is filed as cell-based. Particulars: Escherichia coli. Here is the method:
as §1, §2

The subject of experiment [8] is E. coli DH10B pBCSK(−) producing R228Q variant. Put plainly: MIC by agar dilution, E. coli DH10B producing VIM-2 R228Q. It is filed as cell-based. Particulars: Escherichia coli. Here is the method:
as §1, §2

For experiment [9], the system named is E. coli DH10B pBCSK(−) producing R228M variant. Put plainly: MIC by agar dilution, E. coli DH10B producing VIM-2 R228M. It counts as cell-based. Particulars: Escherichia coli. Here is the method:
as §1, §2

In a further experiment the target is T1, VIM-24 (Escherichia coli, UniProt Q5U7L7, R205L).
T1 construct: which corresponds to cleavage after residues 20 (plus an additional Met residue on the N-terminus); made in house; host or cells: E. coli BL21(DE3) pLys, plasmid pET-24a(+)-blaVIM-24-S21
Put plainly: Steady-state kinetic parameters of substrate hydrolysis by VIM-24. It counts as biochemical. The conditions noted are these: pH 7.5, 25° C., average ± SD, triplicate. The text has this:
Steady-state reactions were followed using an Agilent (Santa Clara, Calif.) 8453 Diode Array spectrophotometer as previously described. […] For ceftazidime and cefepime, a 0.2-cm path length quartz cuvette was used. A nonlinear leastsquares fit of the data (Henri Michaelis-Menten equation) using Enzfitter (Biosoft Corporation, Ferguson, Mo.) was employed to obtain the steady-state kinetic parameters Vmax and KM according to equation 1.
In this equation the observed first-order rate constant k=kcat/KM*[E].

[10] abbreviates: MHA supplemented with 5 μM EDTA.
Where [11] appears, read: MHA supplemented with 250 μM Zn2+.

In brackets after ≈: the same amount, converted by molar mass. Read-outs that look alike come from different tables or passages of the source.

Take `C[C@@H](O)[C@H]1C(=O)N2C(C(=O)O)=C(SCCN=CN)C[C@H]12` [Imipenem]: the MIC against E. coli pBC SK(−) (MHA) was 0.25 µg/mL (≈ 0.835 µM); against E. coli pBC SK(−) (setting [10]), at most 0.125 µg/mL; in the experiment with E. coli pBC SK(−) (setting [11]) it was 0.25 µg/mL (≈ 0.835 µM); in [1] (MHA) it was 0.25 µg/mL (≈ 0.835 µM); in [1] (setting [10]), 0.25 µg/mL (≈ 0.835 µM); in experiment [1] (setting [11]), 0.25 µg/mL (≈ 0.835 µM). Besides, the MIC in [2] (setting [10]) was 0.5 µg/mL (≈ 1.67 µM); in [2] (setting [11]), 1 µg/mL (≈ 3.34 µM); in experiment [2] (MHA) it was 0.5 µg/mL (≈ 1.67 µM); in [3] (MHA) it was 0.5 µg/mL (≈ 1.67 µM); in experiment [3] (setting [10]), at most 0.125 µg/mL; in experiment [3] (setting [11]), 0.25 µg/mL (≈ 0.835 µM). Further, the MIC in experiment [4] (Pseudomonas aeruginosa) came to 32 µg/mL; in experiment [4] (VIM-2 harboring P. aeruginosa clinical isolate) it was 32 µg/mL; in experiment [5] (setting [10]), 0.5 µg/mL (≈ 1.67 µM); in experiment [5] (setting [11]) it was 1 µg/mL (≈ 3.34 µM); in experiment [5] (MHA), 0.5 µg/mL (≈ 1.67 µM); in experiment [6] (VIM-24 producing K. pneumoniae), 2 µg/mL. Further, the MIC in [6] (VIM-24 producing K. pneumoniae clinical isolate) came out at 1 µg/mL; in experiment [7] (MHA), 1 µg/mL (≈ 3.34 µM); in [7] (setting [10]), 1 µg/mL (≈ 3.34 µM); in experiment [7] (setting [11]) it was 1 µg/mL (≈ 3.34 µM); in [8] (MHA), 4 µg/mL (≈ 13.4 µM); in experiment [8] (setting [10]), 4 µg/mL (≈ 13.4 µM). Also, the MIC in [8] (setting [11]) was above 4 µg/mL; in [9] (MHA), 2 µg/mL (≈ 6.68 µM); in [9] (setting [10]), 1 µg/mL (≈ 3.34 µM); in experiment [9] (setting [11]), 4 µg/mL (≈ 13.4 µM).

Turning to `CC1(C)S[C@@H]2[C@H](NC(=O)[C@H](N)c3ccccc3)C(=O)N2[C@H]1C(=O)O` [Ampicillin], the MIC is 4 µg/mL (≈ 11.4 µM) in the experiment on E. coli pBC SK(−) (MHA); 32 µg/mL (≈ 91.6 µM) in experiment [1] (MHA); 512 µg/mL (≈ 1470 µM) in experiment [2] (MHA); 32 µg/mL (≈ 91.6 µM) in experiment [3] (MHA); 512 µg/mL (≈ 1470 µM) in [5] (MHA); 1020 µg/mL (≈ 2930 µM) in experiment [7] (MHA). Also, the MIC in experiment [8] (MHA) and in [9] (MHA) was 1020 µg/mL (≈ 2930 µM) in each case.

Take `O=C(Cc1cccs1)N[C@@H]1C(=O)N2C(C(=O)O)=C(/C=C/c3ccc([N+](=O)[O-])cc3[N+](=O)[O-])CS[C@H]12` [Nitrocefin]: at VIM-24, the Kcat is 171 ± 4 s⁻¹ and the Km worked out at 11 ± 1 µM.

Turning to `CO/N=C(\C(=O)N[C@@H]1C(=O)N2C(C(=O)O)=C(CSc3nc(=O)c(=O)[nH]n3C)CS[C@H]12)c1csc(N)n1` [Ceftriaxone], the MIC is 0.5 µg/mL (≈ 0.902 µM) in the experiment on E. coli pBC SK(−) (MHA); 1 µg/mL (≈ 1.8 µM) in [1] (MHA); 8 µg/mL (≈ 14.4 µM) in experiment [2] (MHA); 0.5 µg/mL (≈ 0.902 µM) in experiment [3] (MHA); 8 µg/mL (≈ 14.4 µM) in [5] (MHA); 16 µg/mL (≈ 28.9 µM) in experiment [7] (MHA). Besides, the MIC is 32 µg/mL (≈ 57.7 µM) in experiment [8] (MHA) and 16 µg/mL (≈ 28.9 µM) in experiment [9] (MHA).

For the compound `CC(=O)OCC1=C(C(=O)O)N2C(=O)[C@@H](NC(=O)Cc3cccs3)[C@H]2SC1` [Cephalothin], the MIC was 8 µg/mL (≈ 20.2 µM) in the experiment on E. coli pBC SK(−) (MHA), 16 µg/mL (≈ 40.4 µM) in experiment [1] (MHA), 16 µg/mL (≈ 40.4 µM) in experiment [3] (MHA) and 1020 µg/mL (≈ 2580 µM) in experiment [8] (MHA). The same compound registered a Kcat on VIM-24 of 150 ± 9 s⁻¹. Moreover, the Km at VIM-24 came to 33 ± 5 µM.
